Laboratory results from ChEMBL document CHEMBL1201862, “PubChem BioAssay data set” (2004).
Calls of active or inactive are those of the source.

Assays:
[1] = molecular target: Matrix metalloproteinase-14 (Homo sapiens, UniProt P50281); test: Dose Response confirmation of uHTS hits for a small molecule inhibitors of MT1-MMP activation in a fluorescence assay set 2.; format: functional
[2] = molecular target: T1, Rac GTPase-activating protein 1 (Homo sapiens, UniProt Q9H0H5); test: blockers of MgcRacGAP-driven Rac1 GTP hydrolysis – biochemical, ADP Hunter fluorescence, primary and confirmatory, confirmation (AID 624330); format: functional
T1 sequence (Q9H0H5 whole entry): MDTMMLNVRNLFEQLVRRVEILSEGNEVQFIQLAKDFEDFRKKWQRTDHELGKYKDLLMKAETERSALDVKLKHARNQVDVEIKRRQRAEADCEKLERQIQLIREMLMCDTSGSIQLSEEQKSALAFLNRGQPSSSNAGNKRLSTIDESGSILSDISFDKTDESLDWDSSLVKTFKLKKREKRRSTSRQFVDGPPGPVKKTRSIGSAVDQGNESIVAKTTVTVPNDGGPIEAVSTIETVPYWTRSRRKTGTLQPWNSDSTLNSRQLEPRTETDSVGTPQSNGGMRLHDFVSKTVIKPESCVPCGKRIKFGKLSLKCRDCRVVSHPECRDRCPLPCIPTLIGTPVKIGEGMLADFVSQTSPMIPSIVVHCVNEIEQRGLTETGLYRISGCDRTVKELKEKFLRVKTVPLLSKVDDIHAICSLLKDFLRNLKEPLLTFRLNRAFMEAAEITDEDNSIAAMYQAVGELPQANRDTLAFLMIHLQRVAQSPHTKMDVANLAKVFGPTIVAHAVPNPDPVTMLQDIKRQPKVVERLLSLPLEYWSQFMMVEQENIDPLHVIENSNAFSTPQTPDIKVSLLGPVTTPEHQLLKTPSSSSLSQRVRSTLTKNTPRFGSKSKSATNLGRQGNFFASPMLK

[3] = molecular target: Botulinum neurotoxin type F (Clostridium botulinum, UniProt P30996); test: High-throughput multiplex microsphere dose response for inhibitors of toxin protease, specifically Botulinum neurotoxin light chain F protease, compounds from Cherry Pick 02.; format: functional; conditions: read-out: EC50_MICROM
Botulinum neurotoxin type F, sequence (P30996 1-436 limits assumed): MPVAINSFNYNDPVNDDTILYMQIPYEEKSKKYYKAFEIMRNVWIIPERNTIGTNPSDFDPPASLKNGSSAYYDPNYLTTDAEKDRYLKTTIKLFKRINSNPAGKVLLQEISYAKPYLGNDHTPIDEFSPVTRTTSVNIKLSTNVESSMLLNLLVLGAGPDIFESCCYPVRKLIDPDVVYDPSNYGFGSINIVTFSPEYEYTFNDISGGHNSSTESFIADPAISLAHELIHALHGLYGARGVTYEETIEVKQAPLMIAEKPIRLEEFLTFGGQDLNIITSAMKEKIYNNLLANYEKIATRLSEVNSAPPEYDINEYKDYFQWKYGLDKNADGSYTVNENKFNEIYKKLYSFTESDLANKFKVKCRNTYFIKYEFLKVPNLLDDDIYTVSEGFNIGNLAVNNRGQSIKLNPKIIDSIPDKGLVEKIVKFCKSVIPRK

[4] = molecular target: T2, Scavenger receptor class B member 1 (Mus musculus, UniProt Q61009); test: mouse SR-BI DiI-HDL transfer blockers – ldlA[mSR-BI] CHO cells, fluorescence plate reader, dry powder, set 9, dose response (AID 623880); format: functional, cell-based
T2 sequence (Q61009 whole entry): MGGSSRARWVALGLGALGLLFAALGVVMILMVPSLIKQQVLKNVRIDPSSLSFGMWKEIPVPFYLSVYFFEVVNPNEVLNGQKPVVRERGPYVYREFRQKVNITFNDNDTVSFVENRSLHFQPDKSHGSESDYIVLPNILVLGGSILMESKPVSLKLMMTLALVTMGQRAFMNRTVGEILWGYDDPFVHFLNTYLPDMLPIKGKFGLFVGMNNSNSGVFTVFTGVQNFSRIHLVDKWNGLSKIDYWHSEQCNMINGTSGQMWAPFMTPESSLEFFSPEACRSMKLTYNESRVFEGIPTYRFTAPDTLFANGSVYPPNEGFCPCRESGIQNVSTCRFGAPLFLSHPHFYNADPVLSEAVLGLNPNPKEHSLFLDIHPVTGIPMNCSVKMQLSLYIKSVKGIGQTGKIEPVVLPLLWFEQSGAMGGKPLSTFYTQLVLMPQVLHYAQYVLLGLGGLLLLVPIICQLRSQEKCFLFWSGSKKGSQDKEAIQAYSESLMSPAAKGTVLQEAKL

[5] = molecular target: T2, Scavenger receptor class B member 1; test: blockers of DiI-HDL lipid transfer via SR-BI – cell-based, ldlA[mSR-BI] CHO, DiI fluorescence, dry powder, set 10, dose response (AID 624029); format: functional
[6] = reduction of Shn3 3'UTR-driven luciferase in osteoblasts – cell-based, Clone20 osteoblasts, firefly luciferase, cherry-picked, dose response (AID 624132); format: functional;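 further: firefly luciferase luminescence from reporter carrying the Shn3 3'UTR in osteoblasts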
[7] = molecular target: T3, Low molecular weight phosphotyrosine protein phosphatase (Homo sapiens, UniProt P24666); format: functional; conditions: read-out: IC50_Mean
T3 sequence (P24666 whole entry): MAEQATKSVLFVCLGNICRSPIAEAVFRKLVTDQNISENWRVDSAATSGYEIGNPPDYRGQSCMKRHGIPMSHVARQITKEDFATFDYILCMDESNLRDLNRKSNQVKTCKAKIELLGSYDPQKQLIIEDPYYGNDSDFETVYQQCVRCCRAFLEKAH

[8] = loss of viability in HepG2 cells – cell-based, CellTiter-Glo, cherry-picked, cytotoxicity control for Shn3 inhibitor project, dose response (AID 624134); format: functional
[9] = molecular target: T3, Low molecular weight phosphotyrosine protein phosphatase; format: functional; conditions: read-out: IC50_Mean; remark: listed apart in the source
[10] = Shn3 3'UTR reporter signal decrease – cell-based, Clone20 osteoblasts, firefly luciferase, cherry-pick, set 2, Schnurri-3 inhibitor project, dose response (AID 720490); format: functional;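 further: actives lower the luminescence signal as inhibitors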
[11] = EF1alpha-driven Renilla reporter with control 3'UTR suppression – Clone20-Shn3RL cells, dual-Glo, cherry-pick, set 2, counter-screen for Shn3 3'UTR targeting project, dose response (AID 720724); format: functional, cell-based; conditions: Dual-Go Shn3RL
[12] = non-specific 3'UTR reporter inhibition in Clone20-Shn3RL – cell-based, Renilla luciferase, cherry-picked, counter-screen for Shn3 inhibitor project, dose response (AID 624133); format: functional

With `CN(C)/C=C/c1oc2ccc(O)cc2c1[N+](=O)[O-]` the IC50 [1] was 26.2 µM (inactive) and the IC50 [2] was 14 µM (active).
For `Cc1cc2cc(CNC(=O)c3ccc(S(=O)(=O)N4CCCCC4)cc3)ccc2[nH]1`, the EC50 [3] was > 20 µM (inactive).
In the case of `COCC(=O)N1CCc2cc(-c3csc(NC(=O)c4cc(OC)cc(OC)c4)n3)ccc21`, the AC50 [4] is reported as 0.00684 µM (active) and the AC50 [5] is reported as 0.00538 µM (active).
In the case of `COCCNc1nc(NCc2ccc(C(C)C)cc2)c2sccc2n1`, the AC50 [6] is reported as 3.95 µM (active), the IC50 [7] is reported as 13 µM (active) and the AC50 [8] is reported as 47.4 µM (active). For the same molecule, the IC50 [9] was 24.5 µM (inactive), the AC50 [10] was 3 µM (active) and the AC50 [11] was 33.2 µM (active). The AC50 [12] was 17.5 µM (active).
